Where two headings read alike, the source gives them in different places. Where no end group is shown, it is not given here.
Experiments:
[1] = Candicidal activity LC50 ± SD
Protocol: 2.3 Potency of Histatin induced wound closure, stereo-specificity of Histatin 2, candidacidal activities of the different histatins. Next the potency of the different Histatins in both wound healing as their candidacidal activities was studied. Histatins are known for their antimicrobial activity.
We tested synthesized Histatins 1, 2, 3, 5 and the enantiomer of Histatin 2 (designated D-Histatin 2) on wound closure and candidacidal activities. In the test concentrations of 1, 5, 10, 30 and 50 μg/ml of the peptides were tested.

[2] = tested on: human buccal epithelial cell line TR146; assay: In vitro wound healing (scratch wound closure) experiments; assay type: cell-based; conditions: for Wound closure rel. clos. ± SD: closure approx. 16 h after wounding relative to negative control, synthetic peptides in SFM, * significant
Protocol: The human buccal epithelial cell line TR146 (Rupniak et al; J Natl Cancer Inst. 1985 October; 75(4):621-35) was kindly provided by Cancer Research UK. Cells were grown in Dulbecco's modified Eagle medium with 4.5 g/l glucose (Invitrogen), 10% FCS (HyClone) and […] penicillin, […] streptomycin, and 250 ng/ml amphotericinB (Antibiotic antimyotic solution, Sigma,), at 37° C., 95% humidity and 5% CO2. Cells were maintained until near confluence and then briefly treated with 0.25% trypsin-EDTA lx (Invitrogen) to detach them, counted in a hepacytometer and seeded into new flasks or multi-well plates at the required cell density of about 1.5×10×5 cells/well.
Wound assays were performed as previously described (Matthay et al., 1993, J Cell Sci. 106 (Pt 3):869-78). In brief, cells were grown in 12-well plates until confluence, and then were serum deprived for 24 hours in keratinocyte serum free medium (SFM (Invitrogen)). In each well a scratch was made in the cellular monolayer using a sterile tip. The wounded monolayer was washed with SFM to remove cellular debris, and the following conditions were applied: • (i) Whole saliva and salivary secretions applied in 30% (v/v) in SFM. As a negative control 30% (v/v) saliva buffer was used. • (ii) (ii) rhEGF (Invitrogen) as a positive control • (iii) rp-HPLC fractions containing salivary proteins; • (iv) synthetic peptides: the experiments with isolated proteins and synthetic peptides were performed in full SFM.
The width of the wound area was determined microscopically immediately after wound creation and at approximately 16 hours after wounding. The relative closure was calculated by relating the closure to that of the negative control.
For inhibitor studies; directly after wounding cells were exposed to inhibitors of ERK1/2 (U0126, 5 μM, LC Laboratories), EGFR (AG1478, 1 μM, Calbiochem), and p38 MAPK (SB203580, 5 μM; LC Laboratories). Experiments were done in quadruplicate and analyzed using One-way ANOVA to determine significance with additional LSD post hoc test, P<0.05 was considered significant.

epithelial cells = assay: Internalization of FITC labeled histatin in epithelial cells (microscopy); assay type: cell-based, human; conditions: FITC labeled histatin incubated two hours (data not shown)
Protocol: Microscope: Leica DM IL PLAN 4-40x magnification, 0.5 lens; camera: Leica DFC320; and acquisition software: Leica IM500. Images were quantified using Adobe Photoshop CS3. Additionally, brightness/contrast levels of the co-localization studies were altered with Adobe Photoshop CS3. FITC labeled histatin was incubated with the cells for two hours. PI was added to check for membrane disruptive dependent internalization. 100 mM Azide was used for 1 hour. Cells were trypsinized as described above. Co-localization studies were performed using Mitotracker (Invitrogen) and Lysotracker (Invitrogen) following manufacturer's instructions. In Candida Histatin 5 is internalized and associates with the energized mitochondrion. Given the abovementioned discrepancy between C. albicans and epithelial cells we were very interested whether histatins become internalized and where in the cells they accumulate. […] NaN3 inhibits the function of cytochrome c oxidase by binding irreversibly to the heme cofactor. Thus, NaN3 treatment lead us to conclude that the internalization energy dependent. […] Which, in addition to the stereo-specificity, is indicating a receptor mediated process. We used mitochondria and acidic lysosome specific markers to elucidate histatin's fate once it is internalized

Compound	CC50 ([1]; 1 mM PPB) [nM]	CC50 ([1]; SFM) [nM]	Wound closure rel. clos. ± SD [2]	induction of wound closure ([2]; synthesized peptides, 1-50 μg/ml)	optimal concentration for wound closure ([2]; tested at 1, 5, 10, 30 and 50 μg/ml) [µg/mL]	internalization into epithelial cells (epithelial cells)	relative wound closure ([2]; peptide concentration 1*10-3 μM, 1 = no peptide added (FIG. 4))	induction of wound closure ([2]; EGF 5 ng/ml)	induced wound closure with EGF receptor blocked ([2]; EGFR inhibitor AG1478 1 μM)	MAPK pathway dependence of induced wound closure ([2]; inhibitors U0126 5 μM (ERK1/2), SB203580 5 μM (p38 MAPK), FIG. 2)
CC(C)C[C@H](NC(=O)[C@H](Cc1ccc(O)cc1)NC(=O)[C@H](CC(N)=O)NC(=O)[C@H](CO)NC(=O)[C@H](CCCNC(=N)N)NC(=O)[C@H](Cc1ccc(O)cc1)NC(=O)CNC(=O)[C@H](CCCNC(=N)N)NC(=O)[C@H](Cc1c[nH]cn1)NC(=O)[C@H](CO)NC(=O)[C@H](Cc1c[nH]cn1)NC(=O)[C@H](Cc1c[nH]cn1)NC(=O)[C@H](CCCCN)NC(=O)[C@H](CCC(=O)O)NC(=O)[C@H](Cc1c[nH]cn1)NC(=O)[C@H](Cc1ccccc1)NC(=O)[C@H](CCCCN)NC(=O)[C@H](CCCNC(=N)N)NC(=O)[C@H](CCCCN)NC(=O)[C@H](Cc1ccc(O)cc1)NC(=O)CNC(=O)[C@H](Cc1c[nH]cn1)NC(=O)[C@H](Cc1c[nH]cn1)NC(=O)[C@H](CCCNC(=N)N)NC(=O)[C@H](CCCCN)NC(=O)[C@H](C)NC(=O)[C@H](Cc1c[nH]cn1)NC(=O)[C@H](CO)NC(=O)[C@@H](N)CC(=O)O)C(=O)N[C@@H](Cc1ccc(O)cc1)C(=O)N[C@@H](CC(=O)O)C(=O)N[C@@H](CC(N)=O)C(=O)O [Histatin 3]	1100 ± 100	> 100000	1.21 ± 0.12*	induce wound closure	30 to 50	are internalized				
C-HST1: cyclic peptide having the amino acid sequence according to SEQ. ID. NO. 4, Histatin 1 (DSHEKRHHGYRRKFHEKHHSHREFPFYGDYGSNYLYDN; also: cyclic (type and places not given here))							1.5			
EGF: epidermal growth factor; rhEGF (Invitrogen) as a positive control			1.41 ± 0.12*					able to induce wound closure	abolished the effect	p38^MAPK dependent

Reference: US20130288964A1, “Use of peptides for promoting wound healing” (priority 2008, published 2013)
